The record followed here is patent US11766430B2, “Methods of using a phenoxypropylamine compound to treat pain” (Minerva Neurosciences, Inc., priority 2018, dated 2023).

In data set [1] the test system is paclitaxel-induced peripheral neuropathic pain in rats. In words: Reversal of paclitaxel-induced peripheral neuropathic pain, paw withdrawal threshold, chronic administration (Example 6). It is filed as in vivo, Male Sprague Dawley rats. The note with it: for PWT compared to vehicle (in words): days 14, 21 and 28; for PWT after cessation of treatment (in words): 100 mg/kg orally, day 35, one week after cessation of treatment. The procedure:
(§1) Male Sprague Dawley rats from Envigo were used in the study. Animals were received at approximately 250 g and housed 3 per cage upon arrival. All rats were examined, handled, and weighed prior to initiation of the study to assure adequate health and suitability. During the course of the study, 12/12 light/dark cycles was maintained. The room temperature was be maintained between 20 and 23° C. with a relative humidity maintained around 50%. Chow and water was provided ad libitum for the duration of the study. All testing was performed during the animal's light cycle phase.
(§2) Paclitaxel (2 mg/kg) was purchased from Biolyse Pharma and injected i.p. on four alternate days (day 1, 3, 5 and 7) for a total of 4 injections at a dose volume of 1 mL/kg.
(§3) Gabapentin (100 mg/kg) was dissolved in saline and administered orally at a dose volume of 1 mL/kg. For prevention study, gabapentin was administered on day 14, sixty minutes prior to test. For reversal study, gabapentin was administered once daily for 2 weeks. On test days it was administered 60 minutes prior to test.
Reversal study: MIN-117 (1, 3 and 10 mg/kg) was formulated in 0.5% (w/v) hydroxypropylmethyl cellulose (HPMC) 8°-120 centipoises in water and administered i.p once daily for 2 weeks at a dose volume of 1 mL/kg. On test days, MIN-117 was administered 2 hours prior to test.
(§4) Rats were administered paclitaxel (2 mg/kg) on four alternate days (days 1, 3, 5 and 7). Baseline and post treatment Paw Withdrawal Threshold (PWT) were evaluated using von Frey filaments (Semmes-Weinstein filaments, Stoelting, Wood Dale, Ill., USA) of varying stiffness (0.4, 0.7, 1.2, 2.0, 3.6, 5.5, 8.5, 10, 15, 26 g). Animals were placed on a perforated metallic platform and allowed to acclimate to their surroundings for a minimum of 15 minutes before each test session. Each filament was presented perpendicular to the plantar surface with sufficient force to cause slight buckling against the paw, and then held until a positive response is noted (paw sharply withdrawn). As described by Chaplan et al. 1994, once the threshold was crossed, the 2 responses straddling the threshold are retrospectively designated as the first 2 responses. Four additional responses were measured to stimuli varied sequentially up or down based on the animal's response. The 6 responses in the immediate vicinity of the threshold were used to calculate the 50% g threshold: 50% g threshold=(10^[Xf+k*d])/10000 Xf is the final filament used (in log units). The parameter k is from the Appendix 1 in Chaplan and was determined by the pattern of the von Frey responses (e.g. OXOXOX where ‘O’ indicates no response and ‘X’ denotes a withdrawal). The parameter d is the difference between stimuli which Chaplan used a constant d=0.224. To accommodate for the use of the 10 g and 26 g filaments, the exact difference between stimuli were used.
(§5) PWT was measured according to the Schematics in FIG. 9 (prevention) and FIG. 10 (reversal study).
Data was analyzed by analysis of variance (ANOVA) followed by post-hoc comparisons where appropriate. An effect will be considered significant if p<0.05. Data was represented as the mean and standard error to the mean (s.e.m). Statistical outliers that fell above or below 2 standard deviations of the mean were identified but not removed from the final analysis.

Data set [2] has as its system chemotherapy-induced peripheral neuropathic pain in rats. The data set can be described thus: Paclitaxel-induced peripheral neuropathic pain, paw withdrawal threshold with von Frey filaments, single administration (Example 5). Type of data set: in vivo, Male Sprague Dawley rats. The procedure: Assessment of neuropathic pain using von Frey filaments was performed. Rats were administered paclitaxel (2 mg/kg) on four alternate days (days 1, 3, 5 and 7). Baseline and post treatment paw withdrawal thresholds (PWT) were evaluated using von Frey filaments (Semmes-Weinstein filaments, Stoelting, Wood Dale, Ill., USA) of varying stiffness (0.4, 0.7, 1.2, 2.0, 3.6, 5.5, 8.5, 10, 15, 26 g). Animals were placed on a perforated metallic platform and allowed to acclimate to their surroundings for a minimum of 15 minutes before each test session. Each filament was presented perpendicular to the plantar surface with sufficient force to cause slight buckling against the paw, and then held until a positive response is noted (paw sharply withdrawn). As described by Chaplan, S. R. et al. “Qualitative Assessment of Tactile Allodynia in the Rat Paw” Journal of Neuroscience Methods, 53 (1994), 55-63 (“Chaplan”), once the threshold was crossed, the 2 responses straddling the threshold are retrospectively designated as the first 2 responses. Four additional responses were measured to stimuli varied sequentially up or down based on the animal's response. The 6 responses in the immediate vicinity of the threshold were used to calculate the 50% g threshold: 50% g threshold=(10^[Xf+k*d])/10000
Xf is the final filament used (in log units). The parameter k is from the Appendix 1 in Chaplan and was determined by the pattern of the von Frey responses (e.g. OXOXOX where ‘O’ indicates no response and ‘X’ denotes a withdrawal). The parameter d is the difference between stimuli which Chaplan used a constant d=0.224. To accommodate for the use of the 10 g and 26 g filaments, the exact difference between stimuli were used.
as §1, with “(from Envigo, Ind., USA)” for “from Envigo”, “12 h/12 h” for “12/12”, “phase. Every effort was made to minimize suffering of animals. Rats with baseline PWT less than 12 g were not included in the study. Rats were balanced by body weight and by their pre-paclitaxel PWT values. ANOVA found no significant differences between the treatment groups.” for “phase.”
Paclitaxel was purchased from Biolyse Pharma (Ontario, Canada) and was injected i.p. (2 mg/kg) on four alternate days (day 1, 3, 5 and 7) for a total of 4 injections at a dose volume of 1 mL/kg.
Rats were subsequently balanced and assigned to treatment groups based on post-paclitaxel PWT values. On test day, PWT was assessed two hours post vehicle or MIN-117 injections and one hour after gabapentin administration.
Gabapentin was purchased from Toronto Research Chemicals and was dissolved in saline and administered orally 60 minutes prior to test at a dose volume of 1 mL/kg. MIN-117 (1, 3 and 10 mg/kg), formulated in 0.5% (w/v) hydroxypropylmethylcellulose (HPMC, Sigma-Aldrich), was administered i.p. at a dose volume of 1 mL/kg. MIN-117 was administered 2 hours prior to test.

A short description of data set [3]: Body weight during the chemotherapy induced neuropathic pain study (Example 5). The note with it: paclitaxel days 1, 3, 5, 7; test compound on day 14; repeated measures ANOVA. It is filed as in vivo, Male Sprague Dawley rats. The procedure: as §1, with “(from Envigo, Ind., USA)” for “from Envigo”, “12 h/12 h” for “12/12”, “phase. Every effort was made to minimize suffering of animals. Rats with baseline PWT less than 12 g were not included in the study. Rats were balanced by body weight and by their pre-paclitaxel PWT values. ANOVA found no significant differences between the treatment groups.” for “phase.”

In data set [4] the test system is paclitaxel-induced peripheral neuropathic pain in rats. In words: Prevention of paclitaxel-induced peripheral neuropathic pain, paw withdrawal threshold, chronic administration (Example 6). The note with it: 100 mg/kg orally on day 14, sixty minutes prior to test (acute). Type of data set: in vivo, Male Sprague Dawley rats. The procedure:
as §1, §2, §3
Prevention study: MIN-117 (10 mg/kg) was formulated in 0.5% (w/v) hydroxypropylmethyl cellulose (HPMC) 8°-120 centipoises in water and was administered i.p once daily for 7 or 14 days at a dose volume of 1 mL/kg. On test days, MIN-117 was administered 2 hours prior to test.
as §4, with “The 6 responses in the immediate vicinity of the threshold were used to calculate the 50% g threshold: 50% g threshold=(10^[Xf+k*d])/10000 Xf is the final filament used (in log units).” left out, “The parameter d is the difference between stimuli which Chaplan used a constant d=0.224. To accommodate for the use of the 10 g and 26 g filaments, the exact difference between stimuli were used.” left out
as §5
Data was analyzed by analysis of variance (ANOVA) followed by post-hoc comparisons where appropriate. […]

Data set [5] concerns paclitaxel-induced neuropathy in rats. The data set can be described thus: Other antidepressants in paclitaxel-induced neuropathy, paw withdrawal threshold (Example 7). Type of data set: in vivo. The note with it: 60 min. following administration. The procedure: Two classes of antidepressants were also evaluated in Paw Withdrawal Threshold (PWT) experiments: duloxetine, a serotonin norepinephrine reuptake inhibitor, and amitriptyline, a tricyclic antidepressant.
On day 22, post-paclitaxel administration (left-most columns in FIG. 16 correspond to rats not administered paclitaxel), rats were administered vehicle (second columns from left in FIG. 16) or duloxetine (orally) and PWT was assessed 60 min. following injection. Data represents mean±s.e.m. (* p<0.05 vs. vehicle/vehicle).
On day 27, post-paclitaxel administration (left-most columns in FIG. 17 correspond to rats not administered paclitaxel), rats were administered vehicle (second columns from left in FIG. 17) or amitriptyline (orally) and PWT was assessed 60 min. following injection. Data represents mean±s.e.m. (* p<0.05 vs. vehicle/vehicle, #p<0.05 vs. paclitaxel/vehicle).

“Also recorded” adds a separate entry of the source.

Regarding `NCC1(CC(=O)O)CCCCC1` [Gabapentin, reference compound], the “PWT compared to vehicle (in words)” value in data set [1] (100 mg/kg orally once daily for 2 weeks (chronic), 1 hour post dosing) is “significant increase in PWT; also recorded: significantly higher PWT”; in data set [4], “significant increase in PWT; also recorded: significantly higher PWT”. Further, the “PWT after cessation of treatment (in words)” value is given as “returned to vehicle levels” in data set [1] and “no significant effect on PWT” in data set [1] (listed as gabapentin). Moreover, the “Paw withdrawal threshold (PWT) compared to vehicle (in words)” value in data set [2] (Day 14 after first paclitaxel, administered orally 60 minutes prior to test) is listed as “significant increase in PWT”. Besides, in data set [2] (Paclitaxel + Gabapentin (100 mg/kg), oral, 60 minutes prior to test, Count 12), the “Paw withdrawal threshold (PWT), Day 14 Avg., Mean” value was found to be 19.633 g. For the same compound, the “Mean Diff. of Day 14 Avg. PWT, Fisher's PLSD” value in data set [2] (Paclitaxel + Vehicle, Paclitaxel + Gabapentin (100 mg/kg)) is given as −15.759. In addition, the “Body weight during the study, between groups (in words)” value in data set [3] is “no significant difference between groups”.

For `Cc1nnc(-c2cc3c(OC[C@@H](O)CN4CCC(c5ccc(Cl)c(Cl)c5)CC4)cccc3o2)o1` [Compound I, (2S)-1-(4-(3,4-dichlorophenyl)piperidin-1-yl)-3-((2-(5-methyl-1,3,4-oxadiazol-2-yl)benzofuran-4-yl)oxy)propan-2-ol], the “PWT compared to vehicle (in words)” value in data set [1] (1 mg/kg i.p. once daily for 2 weeks, 2 hours post dosing) was “significant increases in pain with threshold”; in data set [1] (3 mg/kg i.p. once daily for 2 weeks, 2 hours post dosing) it was “significant increases in pain with threshold”; in data set [1] (10 mg/kg i.p. once daily for 2 weeks, 2 hours post dosing) it was “significant increases in pain with threshold”.

On to `CNCC[C@H](Oc1cccc2ccccc12)c1cccs1` [duloxetine], for which the “Effect on PWT in paclitaxel-treated rats (in words)” value is “no effect on PWT” in data set [5] (3 mg/kg orally, day 22 post-paclitaxel); “no effect on PWT” in data set [5] (10 mg/kg orally, day 22 post-paclitaxel); “no effect on PWT” in data set [5] (30 mg/kg orally, day 22 post-paclitaxel).

For `CN(C)CCC=C1c2ccccc2CCc2ccccc21` [amitriptyline], the “Effect on PWT in paclitaxel-treated rats (in words)” value in data set [5] (3 mg/kg orally, day 27 post-paclitaxel) is listed as “not found to reverse paclitaxel-induced neuropathy”; in data set [5] (10 mg/kg orally, day 27 post-paclitaxel), “not found to reverse paclitaxel-induced neuropathy”; in data set [5] (30 mg/kg orally (highest dose tested), day 27 post-paclitaxel), “only partially reversed”.
